Results as given in patent US10865216B2, “Tricyclic Gyrase inhibitors” (MERCK SHARP & DOHME CORP., priority 2012, dated 2020).
Values after ≈ are worked out from the molar mass of the structure shown. Like-named read-outs stand apart in the source and are kept apart here.

How the values were obtained:
Format in all cases: cell-based
A. baumannii ATCC 19606 = experiment: MIC, A. baumannii ATCC 19606; settings: Table 10, Ab = A. baumannii, strain not stated
[1] = test system: K. pneumoniae ATCC 700603; experiment: MIC, K. pneumoniae ATCC 700603; settings: Table 10, Kpn = K. pneumoniae
S. aureus ATCC 13709 = experiment: MIC, S. aureus ATCC 13709; settings: for MIC Sa: S. aureus; for Sa MIC: Table 10; for SA MIC: Table 14, R2 is a 5 membered heterocycle; for MIC: Staphylococcus aureus
S. pneumoniae ATCC 51916 = experiment: MIC, S. pneumoniae ATCC 51916; settings: Table 10, Spn = S. pneumoniae
E. coli ATCC 25922 = experiment: MIC, E. coli ATCC 25922; settings: for MIC Ec: E. coli; for Ec MIC: Table 10; for EC8 MIC: Table 14, R2 is a 5 membered heterocycle, EC8 not defined; for MIC: Escherichia coli
P. aeruginosa ATCC 15692 = experiment: MIC, P. aeruginosa ATCC 15692; settings: Table 10, Pa = P. aeruginosa
[2] = test system: S. aureus ATCC 13709 + mouse serum; experiment: MIC, SA + serum (S. aureus ATCC 13709, MHCA + mouse serum); settings: Table 14; R2 is a 5 membered heterocycle
Y. pestis CO92 pgm- = settings: Table 10
[3] = test system: F. tularensis holarctica LVS; experiment: microbe, parasite or virus in culture; settings: Table 10; Ft = F. tularensis, strain not stated
[4] = test system: B. thailandensis ATCC E264; experiment: microbe, parasite or virus in culture
[5] = Alamar Blue read after overnight incubation at 35° C.
[6] = Ec = E. coli, strain not stated

| SMILES | Ab MIC (A. baumannii ATCC 19606) [µg/mL] | Kpn MIC [1] [µg/mL] | MIC Sa (S. aureus ATCC 13709; [5]) [µg/mL] | Sa MIC (S. aureus ATCC 13709; Sa = S. aureus) [µg/mL] | Spn MIC (S. pneumoniae ATCC 51916) [µg/mL] | MIC Ec (E. coli ATCC 25922; [5]) [µg/mL] | Ec MIC (E. coli ATCC 25922; [6]) [µg/mL] | Pa MIC (P. aeruginosa ATCC 15692) [µg/mL] | SA MIC (S. aureus ATCC 13709) | EC8 MIC (E. coli ATCC 25922) [µg/mL] | SA+ serum MIC [2] [µg/mL] | also measured |
| --- | --- | --- | --- | --- | --- | --- | --- | --- | --- | --- | --- | --- |
| CNc1cc(F)cc2c1[nH]c1nc(Oc3cnc(C(C)O)nc3)nc(N3CC4(CCC4N)C3)c12 (stereo not shown) [Compound 4.410] | 2 | 2 | ≤0.5 | ≤0.5 | ≤0.5 | ≤0.5 | ≤0.5 | 1 | – | – | – | – |
| CNc1cc(F)cc2c1[nH]c1nc(Oc3cnc(C)nc3)nc(N3CC4NCCC4(C)C3)c12 (stereo not shown) [Compound 4.157] | ≤0.5 | 4 | ≤0.5 | ≤0.5 | ≤0.5 | ≤0.5 | ≤0.5 | 8 | – | – | – | – |
| CNc1cc(F)cc2c1[nH]c1nc(Sc3nc(Br)cs3)nc(N3CC4CC(N)C4C3)c12 (stereo not shown) | – | – | – | – | – | – | – | – | ≤ 0.5 µg/mL | ≤ 0.5 | ≤ 0.5 | – |
| CNc1cc(F)cc2c1[nH]c1nc(Sc3nc4ccccc4s3)nc(N3C[C@H]4C[C@@H]3C[C@H]4N)c12 | – | – | – | – | – | – | – | – | 1 µg/mL | 16 | 4 | – |
| CNc1cc(F)cc2c1[nH]c1nc(Sc3nc(C(=O)OC)cs3)nc(N3CC4CC(N)C4C3)c12 (stereo not shown) | – | – | – | – | – | – | – | – | ≤ 0.5 µg/mL | ≤ 0.5 | 2 | – |
| CNc1cc(F)cc2c1[nH]c1nc(Sc3nncs3)nc(N3C[C@H]4C[C@@H]3C[C@H]4N)c12 [drawing 1754] | – | – | – | – | – | – | – | – | <≤ 0.5 | ≤ 0.5 | ≤ 0.5 | – |
| CNc1cc(F)cc2c1[nH]c1nc(Oc3cnc(C)nc3)nc(N3CC4CC(N)C4C3)c12 (stereo not shown) [Compound 4.084] | ≤0.5 | 4 | ≤0.5 | ≤0.5 | ≤0.5 | ≤0.5 | ≤0.5 | 1 | – | – | – | Yp MIC (Y. pestis CO92 pgm-): ≤0.5 µg/mL; Ft MIC [3]: ≤0.5 µg/mL; Bt MIC [4]: ≤0.5 µg/mL |
| CNc1cc(F)cc2c1[nH]c1nc(Oc3ccc(C#N)nc3)nc(N3C[C@H]4C[C@@H]3C[C@H]4N)c12 [Compound 4.434] | – | – | – | – | – | – | – | – | – | – | – | MIC (A. baumannii ATCC 19606; Acinetobacter baumannii, ATCC19606): ≤ 0.5 µg/mL; MIC ([1]; Klebsiella pneumoniae, ATCC700603): 1 µg/mL (≈ 2.25 µM); MIC (S. aureus ATCC 13709; ATCC13709, S. aureus, Alamar Blue read after overnight incubation at 35° C., read-out: MIC Sa): ≤ 0.5 µg/mL; MIC (S. aureus ATCC 13709; ATCC13709, Table 10, Sa = S. aureus, read-out: Sa MIC): ≤ 0.5 µg/mL; MIC (S. pneumoniae ATCC 51916; Streptococcus pneumoniae, ATCC51916): ≤ 0.5 µg/mL; MIC (E. coli ATCC 25922; ATCC25922, E. coli, Alamar Blue read after overnight incubation at 35° C., read-out: MIC Ec): ≤ 0.5 µg/mL; MIC (E. coli ATCC 25922; ATCC25922, Table 10, Ec = E. coli, strain not stated, read-out: Ec MIC): ≤ 0.5 µg/mL; MIC (P. aeruginosa ATCC 15692; Pseudomonas aeruginosa, ATCC15692): 1 µg/mL (≈ 2.25 µM) |
| CNc1cc(F)cc2c1[nH]c1nc(Sc3nc(C(=O)O)cs3)nc(N3CC4CC(N)C4C3)c12 (stereo not shown) | – | – | – | – | – | – | – | – | ≤ 0.5 µg/mL | > 16 | 2 | – |
| CNc1cc(F)cc2c1[nH]c1nc(Oc3cnc4cccnc4c3)nc(N3CC4(CCC4N)C3)c12 (stereo not shown) [Compound 4.045] | ≤0.5 | 8 | ≤0.5 | ≤0.5 | ≤0.5 | ≤0.5 | ≤0.5 | 4 | – | – | – | Yp MIC (Y. pestis CO92 pgm-): ≤0.5 µg/mL; Ft MIC [3]: 2 µg/mL; Bt MIC [4]: 1 µg/mL |
